Measurements reported in PubChem BioAssay AID743284 (The Scripps Research Institute Molecular Screening Center, 2014).
pIC50: −log10 of the molar value. Activity calls are given as the source filed them.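 Rule for the calls: active = compounds whose fitted concentration for half-maximal reporter inhibition is 10 µM or lower; inactive = the rest.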

biological target: COUP transcription factor 2 (Homo sapiens) (UniProt P24468); experiment: NR2F2 transcriptional activity inhibitors, potency, late-stage follow-up, cell-based, luciferase reporter, HEK293, powder samples, round 000 (AID 743284); conditions: HEK293 NGFI-A luciferase reporter, luminescence
Sequence (P24468 whole entry, looked up): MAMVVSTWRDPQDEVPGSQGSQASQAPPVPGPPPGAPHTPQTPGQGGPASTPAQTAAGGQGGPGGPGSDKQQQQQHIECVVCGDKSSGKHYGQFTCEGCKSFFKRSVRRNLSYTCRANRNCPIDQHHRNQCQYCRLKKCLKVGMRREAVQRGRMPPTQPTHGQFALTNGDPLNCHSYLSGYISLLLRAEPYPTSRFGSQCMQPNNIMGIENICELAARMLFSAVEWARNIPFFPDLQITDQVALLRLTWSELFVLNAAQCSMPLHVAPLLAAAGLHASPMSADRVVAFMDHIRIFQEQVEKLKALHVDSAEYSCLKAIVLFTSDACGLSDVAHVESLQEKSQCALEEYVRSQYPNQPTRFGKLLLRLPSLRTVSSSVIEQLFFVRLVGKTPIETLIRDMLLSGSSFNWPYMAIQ

Compound	pIC50	IC50
CCOC(=O)C1CCCN(S(=O)(=O)c2ccc(S(=O)(=O)N(CC)CC)cc2)C1 (stereo not drawn)	5.52	
Cc1oc(-c2ccc(Cl)cc2)nc1CS(=O)CC(=O)NCCCN1CCN(Cc2ccccc2)CC1 (stereo not drawn)	5.20	
CCOc1cc(S(=O)(=O)NCc2ccncc2)ccc1Cl	5.69	
O=C(Nc1ccncc1)c1ccc(Cl)c(S(=O)(=O)N2CCc3ccccc32)c1	5.41	
Cc1sc2ncnc(NCC3COc4ccccc4O3)c2c1C (stereo not drawn)	5.49	
O=S(=O)(NCC1CCCO1)c1ccc(-c2ccc(S(=O)(=O)NCC3CCCO3)cc2)cc1 (stereo not drawn)	5.73	
CN(CC1CCCO1)S(=O)(=O)c1ccc(C(=O)Nc2nc3cc4c(cc3s2)OCO4)cc1 (stereo not drawn)	5.70	
CC(Nc1ncnc2ccccc12)c1ccccc1 (stereo not drawn)	5.30	
COc1ccc(NS(=O)(=O)c2cccc(NC(=O)c3ccc(Cl)nc3)c2)cc1	5.46	
CCN(CC)S(=O)(=O)c1cccc(NC(=O)CNc2cccc(S(=O)(=O)N3CCCC3)c2)c1	5.40	
Cc1sc2ncnc(NCCc3ccc(S(N)(=O)=O)cc3)c2c1C	5.24	
Cc1ccc(S(=O)(=O)CC2CSc3nc4ccccc4n32)cc1 (stereo not drawn)	5.38	
COc1ccc(C2=Nn3c([n+](C)c4ccccc43)SC2)cc1	5.32	
CCOC(=O)N1CCN(C(=O)CSCC(=O)Nc2nc(-c3ccc(-c4ccccc4)cc3)cs2)CC1	5.54	
CC1Cc2cc(-c3csc(NC(=O)Cc4cccs4)n3)ccc2N1S(C)(=O)=O (stereo not drawn)	5.64	
CCC1CCCCN1C(=O)c1cc(COc2ccc3ncccc3c2)on1 (stereo not drawn)	5.48	
Cc1cc(C)c(S(=O)(=O)NCc2ccncc2)c(C)c1	5.27	

Continued, values first:

pIC50	IC50	Compound
5.86		Cn1nccc1C(=O)NC1CCCc2c1cnn2-c1ccc(C(C)(C)C)cc1 (stereo not drawn)
5.83		COc1ccc(CCNc2ncnc3sc(C)cc23)cc1OC
5.16		Cc1cc(-n2c(C)cc(C(=O)CSc3ncnc4ccccc34)c2C)no1
6.23		CC(=O)Nc1ccccc1OCC(=O)c1cc(C)n(Cc2cccs2)c1C
5.46		Cc1ccc(OCCN2CCN(c3ncnc4sc(C)c(C)c34)CC2)cc1
5.50		COc1ccc(OC)c(CCNC(=O)Cn2nc(C)c3c(C)n(-c4ccc(C)cc4)nc3c2=O)c1
5.24		COc1ccc(NS(=O)(=O)c2ccc(-c3coc(C)n3)cc2)cc1OC
	inactive	Cc1cc(-n2nc3ccccc3n2)c2oc(SCC(=O)NC(C)(C)C)nc2c1
5.56		COc1ccc(CN(C)c2ccc(S(=O)(=O)N3CCN(C)CC3)cc2[N+](=O)[O-])cc1OC
5.49		Cc1nn(C)c(C)c1CN(C)S(=O)(=O)c1ccc2ccccc2c1
5.75		COc1ccc(CCNc2ncnc3sccc23)cc1OC
